System: Citrobacter rodentium
Assay: Functionality assay (antimicrobial activity, killing of bacteria)
Assay type: cell-based
Method: One skilled in the art will appreciate that similar methods can be used to confirm the functionality of any AMP of interest, such as a defensin. The OD600 of a Citrobacter rodentium overnight culture was measured and a dilution series was performed. 100 μl of a 7.1×10^2 bacteria/ml dilution was used in the functionality assay. […] For LL37, the positive control had 20 μM pure synthetic LL37 (Microchem Facility, Emory) added, and LL37 peptide obtained in Example 2 was added at 8.5 μg (250 μl) or 17 μg (500 μl) (FIG. 3). 20 μM concentration of the synthetic peptides equals 8.8 μg added.

[1] = CRAMP peptide of Example 2 at 30 μM or 53 μM, positive control 50 μM CRAMP (Sigma Genosys), FIG. 2

Substance	efficiency in killing Citrobacter rodentium compared with commercially available peptide [1]	efficiency in killing Citrobacter rodentium compared with commercially available peptide (LL37 peptide of Example 2 at 8.5 μg (250 μl) or 17 μg (500 μl), positive control 20 μM synthetic LL37, FIG. 3)
CRAMP-FLAG-tag: CRAMP with C-terminal FLAG tag, released by sumoase from His tag-SUMO-CRAMP-FLAG-tag (HMGLLRKGGEKIGEKLKKIGQKIKNFFQKLVPQPEQDYKDDDDKG; C-terminal FLAG tag; Resulting peptide when SEQ ID NO 45 treated with sumoase)	decrease in efficacy	
CRAMP: mouse cathelicidin-related antimicrobial peptide, active last 34 aa, released by sumoase from recombinant His tag-SUMO-CRAMP (HMGLLRKGGEKIGEKLKKIGQKIKNFFQKLVPQPEQ; resulting protein when SEQ ID NO 47 treated with sumoase)	almost as efficient in killing Citrobacter rodentium as the commercially available peptide	
LL37: human cathelicidin LL37 plus N-terminal His and Met, released by sumoase from His tag-SUMO-LL37 (HMLLGDFFRKSKEKIGKEFKRIVQRIKDFLRNLVPRTES; resulting peptide when SEQ ID NO 40 treated with sumoase.)		almost as efficient in killing Citrobacter rodentium as the commercially available peptide
